Results on eight compounds are retold here after patent publication US9247741B2, “Use of macrocyclic picolinamides as fungicides” (DOW AGROSCIENCES LLC, priority 2013, dated 2016).

Data set [1] relates to Glomerella lagenarium; Anamorph: Colletotrichum lagenarium. In words: Cucumber anthracnose (COLLLA) disease control. In kind it is in vivo. The note with it: Colletotrichum orbiculare, 24 h, 1 Day Protectant, read-out: COLLLA disease control rating. Here is the method: Technical grades of materials were dissolved in acetone, which were then mixed with nine volumes of water containing 110 ppm Triton X-100. The fungicide solutions were applied onto wheat seedlings using an automated booth sprayer to run-off. All sprayed plants were allowed to air dry prior to further handling. All fungicides were evaluated using the aforementioned method for their activity vs. all target diseases. Wheat leaf blotch and brown rust activity were also evaluated using track spray applications, in which case the fungicides were formulated as EC formulations, containing 0.1% Trycol 5941 in the spray solutions. Wheat plants (variety Yuma) were grown from seed in a greenhouse in 50% mineral soil/50% soil-less Metro mix until the first leaf was fully emerged, with 7-10 seedlings per pot. These plants were inoculated with an aqueous spore suspension of Septoria tritici either prior to or after fungicide treatments. After inoculation the plants were kept in 100% relative humidity (one day in a dark dew chamber followed by two to three days in a lighted dew chamber at 20° C.) to permit spores to germinate and infect the leaf. The plants were then transferred to a greenhouse set at 20° C. for disease to develop. When disease symptoms were fully expressed on the l^st leaves of untreated plants, infection levels were assessed on a scale of 0 to 100 percent disease severity. Percent disease control was calculated using the ratio of disease severity on treated plants relative to untreated plants. Evaluation of Fungicidal Activity: Cucumber Anthracnose (Glomerella lagenarium; Anamorph: Colletotrichum lagenarium; Bayer Code COLLLA) Cucumber seedlings (variety Bush Pickle) were propagated in soil-less Metro mix, with each pot having one plant, and used in the test when 12 to 14 days old. Test plants were inoculated with an aqueous spore suspension of Colletotrichum lagenarium 24 hr after fungicide treatments. After inoculation the plants were kept in a dew room at 22° C. with 100% relative humidity for 48 hr to permit spores to germinate and infect the leaf. The plants were then transferred to a growth room set at 22° C. for disease to develop. Fungicide formulation, application and disease assessment on the sprayed leaves followed the procedures as described in the Example A.

Data set [2] has as its system Leptosphaeria nodorum. Kind of data set: Wheat glume blotch (LEPTNO) disease control. In kind it is in vivo. The settings on record: Parastagonospora nodorum, 24 h, 1 Day Protectant, read-out: LEPTNO disease control rating. The procedure:
Technical grades of materials were dissolved in acetone, which were then mixed with nine volumes of water containing 110 ppm Triton X-100. The fungicide solutions were applied onto wheat seedlings using an automated booth sprayer to run-off. All sprayed plants were allowed to air dry prior to further handling. All fungicides were evaluated using the aforementioned method for their activity vs. all target diseases. Wheat leaf blotch and brown rust activity were also evaluated using track spray applications, in which case the fungicides were formulated as EC formulations, containing 0.1% Trycol 5941 in the spray solutions. Wheat plants (variety Yuma) were grown from seed in a greenhouse in 50% mineral soil/50% soil-less Metro mix until the first leaf was fully emerged, with 7-10 seedlings per pot. These plants were inoculated with an aqueous spore suspension of Septoria tritici either prior to or after fungicide treatments. After inoculation the plants were kept in 100% relative humidity (one day in a dark dew chamber followed by two to three days in a lighted dew chamber at 20° C.) to permit spores to germinate and infect the leaf. The plants were then transferred to a greenhouse set at 20° C. for disease to develop. When disease symptoms were fully expressed on the l^st leaves of untreated plants, infection levels were assessed on a scale of 0 to 100 percent disease severity. Percent disease control was calculated using the ratio of disease severity on treated plants relative to untreated plants. Evaluation of Fungicidal Activity: Wheat Glume Blotch (Leptosphaeria nodorum; Bayer Code […]) Wheat plants (variety Yuma) were grown from seed in a greenhouse in 50% mineral soil/50% soil-less Metro mix until the first leaf was fully emerged, with 7-10 seedlings per pot. These plants were inoculated with an aqueous spore suspension of Leptosphaeria nodorum 24 hr after fungicide treatments. After inoculation the plants were kept in 100% relative humidity (one day in a dark dew chamber followed by two days in a lighted dew chamber at 20° C.) to permit spores to germinate and infect the leaf. The plants were then transferred to a greenhouse set at 20° C. for disease to develop. Fungicide formulation, application and disease assessment followed the procedures as described in the Example A.

Data set [3] deals with Cercospora beticola. In words: Leaf spot of sugar beets (CERCBE) disease control. In kind it is in vivo. The settings on record: 24 h, 1 Day Protectant, sugar beet, read-out: CERCBE disease control rating. The procedure: Technical grades of materials were dissolved in acetone, which were then mixed with nine volumes of water containing 110 ppm Triton X-100. The fungicide solutions were applied onto wheat seedlings using an automated booth sprayer to run-off. All sprayed plants were allowed to air dry prior to further handling. All fungicides were evaluated using the aforementioned method for their activity vs. all target diseases. Wheat leaf blotch and brown rust activity were also evaluated using track spray applications, in which case the fungicides were formulated as EC formulations, containing 0.1% Trycol 5941 in the spray solutions. Wheat plants (variety Yuma) were grown from seed in a greenhouse in 50% mineral soil/50% soil-less Metro mix until the first leaf was fully emerged, with 7-10 seedlings per pot. These plants were inoculated with an aqueous spore suspension of Septoria tritici either prior to or after fungicide treatments. After inoculation the plants were kept in 100% relative humidity (one day in a dark dew chamber followed by two to three days in a lighted dew chamber at 20° C.) to permit spores to germinate and infect the leaf. The plants were then transferred to a greenhouse set at 20° C. for disease to develop. When disease symptoms were fully expressed on the l^st leaves of untreated plants, infection levels were assessed on a scale of 0 to 100 percent disease severity. Percent disease control was calculated using the ratio of disease severity on treated plants relative to untreated plants. Evaluation of Fungicidal Activity: Leaf Spot of Sugar Beets (Cercospora beticola; Bayer Code CERCBE) Sugar beet plants (variety HH88) were grown in soil-less Metro mix and trimmed regularly to maintain a uniform plant size prior to test. Plants were inoculated with a spore suspension 24 hr after fungicide treatments. Inoculated plants were kept in a dew chamber at 22° C. for 48 hr then incubated in a greenhouse set at 24° C. under a clear plastic hood with bottom ventilation until disease symptoms were fully expressed. Fungicide formulation, application and disease assessment on the sprayed leaves followed the procedures as described in the Example A.

By melting point is commonly meant the temperature, or range, at which the solid turns liquid.

On to `CCCO[C@H]1CCC[C@H](NC(=O)c2nccc(OC)c2OCOC(C)=O)C(=O)O[C@@H](C)[C@@H]1CCC(C)C` [Compound 25, ((2-(((3S,7S,8S,9S)-8-isopentyl-9-methyl-2-oxo-7-propoxyoxonan-3-yl)carbamoyl)-4-methoxypyridin-3-yl)oxy)methyl acetate], for which the pest or weed control at 100 ppm in data set [1], in data set [2] and in data set [3] was over 70% throughout.
Consider `COc1ccnc(C(=O)N[C@H]2CCC[C@H](OCC3CC3)[C@@H](Cc3ccc(F)cc3)[C@H](C)OC2=O)c1OCOC(C)=O` [Compound 61], for which the pest or weed control at 100 ppm in data set [1], in data set [2] and in data set [3] was over 70% throughout.
In the case of `CCCO[C@H]1CCC[C@H](NC(=O)c2nccc(OC)c2OC(C)=O)C(=O)O[C@@H](C)[C@@H]1CCC(C)C` [Compound 74, 2-(((3S,7S,8S,9S)-8-isopentyl-9-methyl-2-oxo-7-propoxyoxonan-3-yl)carbamoyl)-4-methoxypyridin-3-yl acetate], the melting point was 46 to 50 °C. Besides, the pest or weed control at 100 ppm in data set [1] is over 70%. For the same compound, in data set [2], the pest or weed control at 100 ppm is over 70%. Besides, in data set [3], the pest or weed control at 100 ppm is over 70%.
`COc1ccnc(C(=O)N[C@H]2CCC[C@H](Oc3ccccc3)[C@@H](CCC(C)C)[C@H](C)OC2=O)c1OCOC(C)=O` [Compound 40] displayed a melting point of 47 to 51 °C. In addition, in data set [1], the pest or weed control at 100 ppm was over 70%. In addition, the pest or weed control at 100 ppm in data set [2] is over 70%. The pest or weed control at 100 ppm in data set [3] was over 70%.
In the case of `CCCC[C@H]1[C@H](C)OC(=O)[C@@H](NC(=O)c2nccc(OC)c2OCOC(C)=O)CCC[C@@H]1OCC1CC1` [Compound 73], the pest or weed control at 100 ppm in data set [1], in data set [2] and in data set [3] was over 70% throughout.
`COc1ccnc(C(=O)N[C@H]2CCC[C@H](Oc3ccccc3)[C@@H](CCC(C)C)[C@H](C)OC2=O)c1OC(C)=O` [Compound 36]: the pest or weed control at 100 ppm in data set [1], in data set [2] and in data set [3] was over 70% in each case.
`CCCO[C@H]1CCC[C@H](NC(=O)c2nccc(OC)c2OC(C)=O)C(=O)O[C@@H](C)[C@@H]1Cc1ccccc1` [Compound 70] gave a melting point of 56 to 61 °C. Also, the pest or weed control at 100 ppm in data set [1] was over 70%. For the same compound, the pest or weed control at 100 ppm in data set [2] is over 70%. The pest or weed control at 100 ppm in data set [3] was over 70%.
Consider `CCCC[C@H]1[C@H](C)OC(=O)[C@@H](NC(=O)c2nccc(OC)c2OCOC(C)=O)CCC[C@@H]1Oc1ccccc1` [Compound 33], for which the pest or weed control at 100 ppm in data set [1], in data set [2] and in data set [3] was over 70% throughout.
